Data: PubChem BioAssay (NCI)
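Five compound concentrations were applied to cells in 96-well plates for 48 hours; endpoints were derived by simple linear interpolation of the resulting dose-response curve. At the GI50, growth is halved. At the TGI there is no net growth.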

Columns and labels:
Assay in all cases: NCI-60 cell line screen, 48 h
[1] = tested on: NCI/ADR-RES ovarian
[2] = tested on: MDA-N
[3] = tested on: T-47D breast
[4] = tested on: MALME-3M melanoma
[5] = tested on: LOX IMVI melanoma
[6] = tested on: OVCAR-8 ovarian
[7] = tested on: OVCAR-3 ovarian
[8] = tested on: TK-10 renal
[9] = tested on: NCI-H522 lung
[10] = tested on: SNB-75 CNS
[11] = tested on: HOP-62 NSCLC
[12] = tested on: NCI-H460 lung
[13] = tested on: NCI-H23 lung
[14] = tested on: HS 578T breast
[15] = tested on: OVCAR-4 ovarian
[16] = tested on: NCI-H226 lung
[17] = tested on: OVCAR-5 ovarian
[18] = tested on: PC-3 prostate
[19] = tested on: DU-145 prostate
[20] = tested on: HT29 colon
[21] = tested on: RPMI-8226 leukemia
[22] = tested on: MCF7 breast
[23] = tested on: SK-MEL-5 melanoma
[24] = tested on: ACHN renal
[25] = tested on: UO-31 renal
[26] = tested on: MDA-MB-435
[27] = tested on: SF-295 CNS
[28] = tested on: SR leukemia
[29] = tested on: UACC-62 melanoma
[30] = tested on: SN12C renal
[31] = tested on: IGROV1 ovarian
[32] = tested on: A549 NSCLC
[33] = tested on: RXF 393 renal
[34] = tested on: BT-549 breast
[35] = tested on: HL-60(TB) leukemia
[36] = tested on: HOP-92 NSCLC
[37] = tested on: CAKI-1 renal
[38] = tested on: UACC-257 melanoma
[39] = tested on: SF-268 CNS
[40] = tested on: HCT-116 colon
[41] = tested on: 786-0 renal
[42] = tested on: SW-620 colon
[43] = tested on: CCRF-CEM leukemia
[44] = tested on: HCC-2998 colon
[45] = tested on: U251 CNS
[46] = tested on: COLO 205 colon
[47] = tested on: SK-MEL-2 melanoma
[48] = tested on: MOLT-4 leukemia
[49] = tested on: A498 renal
[50] = tested on: MDA-MB-231 breast
[51] = tested on: SF-539 CNS
[52] = tested on: SK-MEL-28 melanoma
[53] = tested on: K-562 leukemia
[54] = tested on: KM12 colon
[55] = tested on: EKVX NSCLC
[56] = tested on: M14 melanoma
[57] = tested on: KM20L2 colon
[58] = tested on: SNB-78 CNS
[59] = tested on: LXFL 529 NSCLC
[60] = tested on: SK-OV-3 ovarian
[61] = tested on: HCT-15 colon
[62] = tested on: DMS 273 small cell lung
[63] = tested on: SNB-19 CNS
[64] = tested on: DLD-1 colon
[65] = tested on: HOP-18 NSCLC

Structure (SMILES): Cc1cc2c(cc1C)OC(=O)CC2
- TGI [1]: > 100 µM
- TGI [2]: > 100 µM
- TGI [3]: > 100 µM
- TGI [4]: > 100 µM
- TGI [5]: > 100 µM
- TGI [6]: > 100 µM
- TGI [7]: > 100 µM
- TGI [8]: > 100 µM
- TGI [9]: > 100 µM
- TGI [10]: > 100 µM
- TGI [11]: > 100 µM
- TGI [12]: > 100 µM
- TGI [13]: > 100 µM
- TGI [14]: > 100 µM
- TGI [15]: > 100 µM
- TGI [16]: > 100 µM
- TGI [17]: > 100 µM
- TGI [18]: > 100 µM
- TGI [19]: > 100 µM
- TGI [20]: > 100 µM
- TGI [21]: > 100 µM
- TGI [22]: > 100 µM
- TGI [23]: > 100 µM
- TGI [24]: > 100 µM
- TGI [25]: > 100 µM
- TGI [26]: > 100 µM
- TGI [27]: > 100 µM
- TGI [28]: > 100 µM
- TGI [29]: > 100 µM
- TGI [30]: > 100 µM
- TGI [31]: > 100 µM
- TGI [32]: > 100 µM
- TGI [33]: > 100 µM
- TGI [34]: > 100 µM
- TGI [35]: > 100 µM
- TGI [36]: > 100 µM
- TGI [37]: > 100 µM
- TGI [38]: > 100 µM
- TGI [39]: > 100 µM
- TGI [40]: > 100 µM
- TGI [41]: > 100 µM
- TGI [42]: > 100 µM
- TGI [43]: > 100 µM
- TGI [44]: > 100 µM
- TGI [45]: > 100 µM
- TGI [46]: > 100 µM
- TGI [47]: > 100 µM
- TGI [48]: > 100 µM
- TGI [49]: > 100 µM
- TGI [50]: > 100 µM
- TGI [51]: > 100 µM
- TGI [52]: > 100 µM
- TGI [53]: > 100 µM
- TGI [54]: > 100 µM
- TGI [55]: > 100 µM
- TGI [56]: > 100 µM

Structure (SMILES): N.N.N.N.N.NC(=O)c1nn[n-]n1.[Cl-].[Co+3]
- GI50 [4]: > 100 µM
- TGI [4]: > 100 µM
- GI50 [5]: > 100 µM
- TGI [5]: > 100 µM
- GI50 [6]: > 100 µM
- TGI [6]: > 100 µM
- GI50 [7]: > 100 µM
- TGI [7]: > 100 µM
- GI50 [8]: > 100 µM
- TGI [8]: > 100 µM
- GI50 [57]: > 100 µM
- TGI [57]: > 100 µM
- GI50 [10]: > 100 µM
- TGI [10]: > 100 µM
- GI50 [11]: > 100 µM
- TGI [11]: > 100 µM
- GI50 [58]: > 100 µM
- TGI [58]: > 100 µM
- GI50 [12]: > 100 µM
- TGI [12]: > 100 µM
- GI50 [13]: > 100 µM
- TGI [13]: > 100 µM
- GI50 [15]: > 100 µM
- TGI [15]: > 100 µM
- GI50 [59]: > 100 µM
- TGI [59]: > 100 µM
- GI50 [17]: > 100 µM
- TGI [17]: > 100 µM
- GI50 [20]: > 100 µM
- TGI [20]: > 100 µM
- GI50 [60]: > 100 µM
- TGI [60]: > 100 µM
- GI50 [21]: > 100 µM
- TGI [21]: > 100 µM
- GI50 [23]: > 100 µM
- TGI [23]: > 100 µM
- GI50 [24]: > 100 µM
- TGI [24]: > 100 µM
- GI50 [25]: > 100 µM
- TGI [25]: > 100 µM
- GI50 [27]: > 100 µM
- TGI [27]: > 100 µM
- GI50 [28]: > 100 µM
- TGI [28]: > 100 µM
- GI50 [29]: > 100 µM
- TGI [29]: > 100 µM
- GI50 [61]: > 100 µM
- TGI [61]: > 100 µM
- GI50 [30]: > 100 µM
- TGI [30]: > 100 µM
- GI50 [31]: > 100 µM
- TGI [31]: > 100 µM
- GI50 [32]: > 100 µM
- TGI [32]: > 100 µM
- GI50 [33]: > 100 µM
- TGI [33]: > 100 µM
- GI50 [62]: > 100 µM
- TGI [62]: > 100 µM
- GI50 [35]: > 100 µM
- TGI [35]: > 100 µM
- GI50 [36]: > 100 µM
- TGI [36]: > 100 µM
- GI50 [63]: > 100 µM
- TGI [63]: > 100 µM
- GI50 [37]: > 100 µM
- TGI [37]: > 100 µM
- GI50 [64]: > 100 µM
- TGI [64]: > 100 µM
- GI50 [38]: > 100 µM
- TGI [38]: > 100 µM
- GI50 [39]: > 100 µM
- TGI [39]: > 100 µM
- GI50 [65]: > 100 µM
- TGI [65]: > 100 µM
- GI50 [40]: > 100 µM
- TGI [40]: > 100 µM
- GI50 [41]: > 100 µM
- TGI [41]: > 100 µM
- GI50 [42]: > 100 µM
- TGI [42]: > 100 µM
- GI50 [43]: > 100 µM
- TGI [43]: > 100 µM
- GI50 [44]: > 100 µM
- TGI [44]: > 100 µM
- GI50 [45]: > 100 µM
- TGI [45]: > 100 µM
- GI50 [46]: > 100 µM
- TGI [46]: > 100 µM
- GI50 [47]: > 100 µM
- TGI [47]: > 100 µM
- GI50 [48]: > 100 µM
- TGI [48]: > 100 µM
- GI50 [51]: > 100 µM
- TGI [51]: > 100 µM
- GI50 [52]: > 100 µM
- TGI [52]: > 100 µM
- GI50 [53]: > 100 µM
- TGI [53]: > 100 µM
- GI50 [54]: > 100 µM
- TGI [54]: > 100 µM
- GI50 [55]: > 100 µM
- TGI [55]: > 100 µM
- GI50 [56]: > 100 µM
- TGI [56]: > 100 µM
